One assay concerns the target T1, HsKRS (Homo sapiens, UniProt Q15046).
T1 construct: HsKRS (full-length) proteins; 6xHis (N); made in house; host or cells: E. coli Rosetta BL21(DE3), vector pAVA0421 (UW); template pET28a-KRS
Description: HsKRS SAR assay, luciferase ATP consumption (Kinase-Glo). The assay is classed as biochemical. As for the experimental part: (§1) We produced recombinant PfKRS1 (77–583 and 80–583), CpKRS (46-end), and HsKRS (full-length) proteins and developed biochemical assays based on the luciferase ATP consumption assay (Kinase-Glo; Promega) ([16]), which was suitable for the high-throughput screening, and the pyrophosphate generation assay (EnzChek) ([17]) format for kinetic characterization of the enzymes. The activities of recombinant enzymes were analyzed by monitoring only the first stage of the aminoacylation reaction. This reaction is suitable for high-throughput screening campaigns and makes the reaction more amenable for steady-state kinetic studies. By using the EnzChek assay, which monitors the production of pyrophosphate (when coupled with pyrophosphatase), Km values were obtained for PfKRS1, CpKRS, and HsKRS for ATP and L-lysine (Table 1 and SI Appendix, Fig. S1 and Table S1). […] This may be due to structural differences (see below) between the active sites of the parasite and human enzymes. […]
(§2) 2.7 PfKR S1, CpKRS and HsKR S S AR Ass ay Usin g L ucife r ase ATP C onsumption ( Kinase Glo ®) Inhi bi ti on of KRS acti vity by cl adospori n and other compou nds was assayed i n t he buffered me di um.
(§3) Each as s ay w el l was compos ed of b uffer (as des cri bed i n Ta bl e S3), 10 µM l ysi ne and ei ther 8.1 nM PfKRS1, 8.1 nM CpKRS or 6.6 nM HsKRS. […] The react i on w a s initiated by the addition of 2 µM ATP. The plate was incubated with shaking at 90 rpm and 30°C for 120 mi n. […] Maximum and minimum signal controls were included in each reaction plate. […] Analysis and calculation of inhibitors IC50 values were performed using Graphpad® Prism software (GraphPad S oftware, San Diego, CA). […]

A further assay deals with CpKRS (Cryptosporidium parvum, UniProt Q5CR27). Description: CpKRS SAR assay, luciferase ATP consumption (Kinase-Glo). The assay is classed as biochemical. On the procedure:
as §1, §2, §3
(Kinase-Glo reads ATP consumption through a luciferase reaction.)

For assay [1], the system named is Plasmodium falciparum 3D7. Description: P. falciparum 3D7 growth inhibition (SYBR green I). Format: cell-based. The following applies: for EC50: Plasmodium falciparum, P. falciparum 3D7 bloodstream, read-out: Pf(3D7) EC50. From the text: (§4) 3.2 Cytotoxicity Studies (Dundee)
(§5) In vi t ro cy totox i ci ty s tudies can be ca rri ed out us i ng Hep G 2 (Human C aucas i an hepatocy te ca rci noma, ECACC cat. no. 850 114 30) us ed as i ndi cators f or g eneral mammal i an cel l tox i ci ty . […]
(§6) 3.3 In vitro Cell Assay D ata Analysis (Du ndee) […]
(§7) as 0%. Qual i ty control c ri teri a for passi ng pl ates were as fol l ow s : Z’ > 0.
(§8) < 15 . T he f ormula used to calculate Z’ is 1- 3´ (St D e v _ hi gh + St D e v_ low) . […]
(§9) Al l EC50 Curve fitti ng was undertaken usi ng XLFi t versi on 4.2 usi ng Model 205 wi th the foll owi ng 4 paramet ri c equat i on: A + (?-A) ,where A=% i nhi bi ti on at bo ttom, B=% i nhi bi ti on at top, C= EC , […]
(§10) D= slope, x= inhibitor concentration a nd y= % inhibition. […]
was fixed to 100 only when at least 50% of inhibition was reached.

For assay [2], the system named is Nanoluciferase-expressing C. parvum. Description: Inhibition of Nanoluciferase expressing C. parvum growth in HCT-8 cells. Format: cell-based, Cryptosporidium parvum. The following applies: read-out: Nluc Cp EC50. As for the experimental part: […] ( UW ) Inhibition of C. parvum growth and EC50 det erm i nat i ons w ere perf ormed w i t h a Na nol uci feras e-expressing C. parvum parasi t e i n HC T-8 cel l s. Oocys ts were propag ated i n cal v es (Cryptosporidium Producti on La borato ry, School o f Ani mal and Comparati ve Bi omedi cal Sci ences, Universi ty of Ari zona) and i sol ated from stool s by sucrose suspensi on and cesi um chl ori de gradi ent. HCT-8 cel ls were seeded to a 384-well plate and allowed to grow for 72 h to reach 90-100% confluence at 37 °C in 5% CO2. Oocysts were activated by 10-15 mi n i ncubat i on i n 10% bl each (0. 6% s odi um hy pochl o ri t e) at room temperature and then washed wi th DPBS. 2000 oocysts per wel l were appl ied to 384-well pl at es wi t h RPM I-1640 medi um s up pl ement ed w i th 10% ho rs e s erum and 1% pe ni ci l li n/s t rept omy ci n at the same time as compound addition. The compound and the oocysts were left in place for the full 72 h g row t h t i me. The amount of l uci feras e-induced light emission was determined by lysing the cell monol ayer, addi ng Nan o-Glo® luciferase reagent (Promega, Madison, W I , USA), and readi ng o n a n EnVi s i on M ul t il abe l Pl at e Re ade r (P e rk i n El me r, Wal t ham, M A, USA). C ont rol s i ncl ude d i nfe ct e d w e lls with no addition of inhibitors and the background was taken as wells where no C. parvum was adde d.
The per cent ag e of g row t h versus infected ce lls with no inhibitor was calculated for each concentrati on of BKI an d the hal f maxi mal effecti ve concentrati on (EC50) v al ues were determi ned by a si gmoi dal dose response wi th vari abl e sl ope usi ng GraphPad Pri sm versi on 6.07 (GraphPa d Software, La Jol l a, Cal i forni a, USA). […]

Another assay has as its target PfKRS1 (Plasmodium falciparum, UniProt Q8IDJ8). As to the kind of experiment: PfKRS1 SAR assay, luciferase ATP consumption (Kinase-Glo). Further details: recombinant PfKRS1 (77–583 and 80–583); 6xHis (N); made in house; host or cells: E. coli Rosetta BL21(DE3), vector pAVA0421. The following applies: for IC50: Kinase-Glo assay. Format: biochemical. As for the experimental part:
as §1, §2, §3

A further assay concerns HepG2 cells. Description: HepG2 cytotoxicity. The assay is classed as cell-based. To be noted: Homo sapiens.
Description: as §4, §5, §6, §7, §8, §9, §10
was fixed to 100 only when at least 50% of inhibition was reached. […]

The mark [3] stands for this setting: Cryptosporidium parvum, HCT-8, C. parvum growth in HCT-8 cells.

The structures appear in SMILES notation. Like-named read-outs stand apart in the source and are kept apart here.

Sequence of PfKRS1 (Q8IDJ8 77-583): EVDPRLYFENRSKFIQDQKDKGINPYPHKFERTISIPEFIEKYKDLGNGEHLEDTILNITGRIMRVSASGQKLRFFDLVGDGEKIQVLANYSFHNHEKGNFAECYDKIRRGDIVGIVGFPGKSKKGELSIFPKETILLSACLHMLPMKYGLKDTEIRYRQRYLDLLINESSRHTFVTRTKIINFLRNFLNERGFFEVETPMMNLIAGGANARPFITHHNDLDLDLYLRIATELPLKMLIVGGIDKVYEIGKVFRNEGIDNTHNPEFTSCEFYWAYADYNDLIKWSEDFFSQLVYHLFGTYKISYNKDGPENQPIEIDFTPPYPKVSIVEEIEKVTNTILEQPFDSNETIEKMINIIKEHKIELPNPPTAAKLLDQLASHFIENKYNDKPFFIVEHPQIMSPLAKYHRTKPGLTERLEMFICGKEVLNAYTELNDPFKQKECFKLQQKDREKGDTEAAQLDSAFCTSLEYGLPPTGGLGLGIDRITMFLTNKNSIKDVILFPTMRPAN
Sequence of CpKRS (Q5CR27 entry or part of it): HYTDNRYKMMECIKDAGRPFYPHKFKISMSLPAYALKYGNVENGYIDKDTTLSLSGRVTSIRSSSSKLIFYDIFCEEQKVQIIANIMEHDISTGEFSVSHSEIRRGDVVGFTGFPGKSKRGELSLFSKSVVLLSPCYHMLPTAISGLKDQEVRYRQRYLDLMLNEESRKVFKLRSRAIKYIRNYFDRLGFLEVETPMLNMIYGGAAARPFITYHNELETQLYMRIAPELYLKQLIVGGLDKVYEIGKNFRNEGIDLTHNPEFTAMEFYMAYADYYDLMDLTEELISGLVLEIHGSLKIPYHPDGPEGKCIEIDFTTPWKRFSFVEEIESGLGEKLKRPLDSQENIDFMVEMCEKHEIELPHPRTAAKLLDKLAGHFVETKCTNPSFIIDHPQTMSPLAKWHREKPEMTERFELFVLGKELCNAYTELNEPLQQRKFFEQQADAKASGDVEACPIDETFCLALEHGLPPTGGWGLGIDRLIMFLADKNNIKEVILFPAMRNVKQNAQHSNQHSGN
T1 sequence (Q15046 whole entry): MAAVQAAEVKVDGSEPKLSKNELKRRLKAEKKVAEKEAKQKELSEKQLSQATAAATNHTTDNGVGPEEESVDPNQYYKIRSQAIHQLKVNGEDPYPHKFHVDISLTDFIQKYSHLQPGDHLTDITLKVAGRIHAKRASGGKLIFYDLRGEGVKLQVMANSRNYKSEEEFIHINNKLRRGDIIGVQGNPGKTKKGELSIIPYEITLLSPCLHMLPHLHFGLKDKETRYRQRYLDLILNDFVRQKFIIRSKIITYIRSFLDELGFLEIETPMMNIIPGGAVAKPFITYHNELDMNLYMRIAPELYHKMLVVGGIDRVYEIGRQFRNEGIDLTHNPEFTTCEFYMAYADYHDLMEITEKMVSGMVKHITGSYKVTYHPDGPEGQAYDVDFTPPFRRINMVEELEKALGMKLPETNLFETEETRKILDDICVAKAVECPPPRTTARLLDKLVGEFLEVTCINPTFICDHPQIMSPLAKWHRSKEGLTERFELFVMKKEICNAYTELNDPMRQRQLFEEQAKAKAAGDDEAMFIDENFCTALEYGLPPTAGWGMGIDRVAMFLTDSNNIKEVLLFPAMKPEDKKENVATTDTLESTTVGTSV

On to `O=C(NCC1CCCCC1)c1cc(=O)c2cc(F)ccc2o1` [Compound 3], for which the IC50 was over 2000 nM against HsKRS, 39 nM on CpKRS and 14 nM on PfKRS1. For the same compound, the figures for the EC50 (in assay [1]; in assay [2] (setting [3]); in the assay with HepG2 cells) were 290 nM, 810 nM and over 50000 nM, respectively.

`C[C@H]1CCC[C@H](C[C@H]2Cc3cc(O)cc(O)c3C(=O)O2)O1` [Compound 1, cladosporin, reference compound]: the values for the IC50 against HsKRS, against CpKRS and at PfKRS1 were over 2000 nM, 38 nM and 4 nM, respectively. Moreover, the EC50 in assay [1] is 73 nM; in assay [2] (C. parvum growth in HCT-8 cells) it was 670 nM; in assay [2] (setting [3]), 700 nM; with HepG2 cells, over 50000 nM.

Take `O=C(NCC1CCCCC1)c1cc(=O)c2ccccc2o1` [Compound 2]: the IC50 against HsKRS was over 2000 nM; against CpKRS, 22 nM; on PfKRS1, 4 nM. For the same compound, the EC50 in assay [1] was 190 nM; in assay [2] (setting [3]), 1200 nM; in the assay with HepG2 cells it was over 50000 nM.

`O=C(NCC1(O)CCC(F)(F)CC1)c1cc(=O)c2cc(F)ccc2o1` [Compound 5]: the IC50 amounted to 1800 nM at HsKRS, 130 nM at CpKRS and 15 nM at PfKRS1. For the same compound, the “cellular selectivity between P. falciparum parasites and human HepG2 cells” value in assay [1] was found to be 180 fold. In addition, the figures for the EC50 (in assay [1]; in assay [2] (setting [3]); with HepG2 cells) were 270 nM, 2500 nM and 49000 nM, respectively. In addition, the “selectivity ratio for HsKRS/PfKRS1” value at PfKRS1 (in Kinase-Glo) is on record as 120 fold.

As for `O=C(NCC1(O)CCCCC1)c1cc(=O)c2cc(F)ccc2o1` [Compound 4], the results for the IC50 at HsKRS, at CpKRS and on PfKRS1 were 740 nM, 8 nM and 5 nM, respectively. Also, the EC50 amounted to 180 nM in assay [1], 140 nM in assay [2] (setting [3]) and 32000 nM in the assay on HepG2 cells.

A word on the IC50: it is the point on the concentration scale where inhibition reaches its midpoint. A word on the EC50: it is the concentration that produces a half-maximal response.

For the origin of these results see publication PMC6452685, “Lysyl-tRNA synthetase as a drug target in malaria and cryptosporidiosis” (Proceedings of the National Academy of Sciences of the …, 2019).
